Measured values as given in the supplement of paper PMC10307832.

Assays:
Assay in all cases: relative viability (nuclei count vs DMSO), 5 days (fraction); higher = more cells survive
BAM7 + AZD7762 = compound: CCOC1=CC=CC=C1N=NC2=C(NN(C2=O)C3=NC(=CS3)C4=CC=CC=C4)C [BAM7] + NC(=O)Nc1cc(-c2cccc(F)c2)sc1C(=O)N[C@H]1CCCNC1 [AZD7762] (partner 0.2 µM)
In short: (§1)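 After 5 days of treatment, lung cancer cells in 1536-well plates were fixed and stained in a single step (final 0.05% Triton X-100, 1% formaldehyde, 1 ug/ml Hoechst) and their nuclei counted on 4× images. Treatment had been applied by pin tool the day after seeding as one drug alone or as a fixed anchor-drug dose with five library-drug doses (not always all listed) in √10 steps. Relative viability is the nuclei count of treated wells divided by that of vehicle wells, and values are medians of duplicate plates.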

[1] = compound: CCn1c(-c2nonc2N)nc2c(C#CC(C)(C)O)ncc(OC[C@H]3CCCNC3)c21 + Nc1ncn([C@H]2C[C@H](O)[C@@H](CO)O2)c(=O)n1 [Decitabine] (partner 2 µM)
In short: as §1

[2] = compound: CCn1c(-c2nonc2N)nc2c(C#CC(C)(C)O)ncc(OC[C@H]3CCCNC3)c21 + C[C@@H](Oc1cc(-c2cnn(C3CCNCC3)c2)cnc1N)c1c(Cl)ccc(F)c1Cl [Crizotinib] (partner 1 µM)
In short: as §1

BAM7 + Palbociclib = compound: CCOC1=CC=CC=C1N=NC2=C(NN(C2=O)C3=NC(=CS3)C4=CC=CC=C4)C [BAM7] + CC(=O)c1c(C)c2cnc(Nc3ccc(N4CCNCC4)cn3)nc2n(C2CCCC2)c1=O [Palbociclib] (partner 0.5 µM)
In short: as §1

Row | Cell Line | relative viability (BAM7 + AZD7762; first compound 0.5 µM) | relative viability (BAM7 + AZD7762; first compound 5 µM) | relative viability (BAM7 + AZD7762; first compound 15.81 µM) | relative viability (BAM7 + AZD7762; first compound 50 µM) | relative viability ([1]; first compound 0.01 µM) | relative viability ([1]; first compound 0.03162 µM) | relative viability ([1]; first compound 0.1 µM) | relative viability ([1]; first compound 0.3162 µM) | relative viability ([1]; first compound 1 µM) | relative viability ([2]; first compound 0.01 µM) | relative viability ([2]; first compound 0.03162 µM) | relative viability ([2]; first compound 0.1 µM) | relative viability ([2]; first compound 0.3162 µM) | relative viability ([2]; first compound 1 µM) | relative viability (BAM7 + Palbociclib; first compound 0.5 µM) | relative viability (BAM7 + Palbociclib; first compound 5 µM) | relative viability (BAM7 + Palbociclib; first compound 15.81 µM) | relative viability (BAM7 + Palbociclib; first compound 50 µM)
1 | RERF-LC-KJ | 0.992 | 1.11 | 0.855 | 0.627 | 0.694 | 0.643 | 0.684 | 0.59 | 0.656 | 0.808 | 0.788 | 0.815 | 0.829 | 0.837 | 0.953 | 0.876 | 0.609 | 0.63
2 | BEN | 0.689 | 0.802 | 0.939 | 0.74 | 0.682 | 0.693 | 0.569 | 0.67 | 0.782 | 0.962 | 1.11 | 0.758 | 0.714 | 0.885 | 0.491 | 0.493 | 0.546 | 0.492
3 | EMC-BAC-2 | 1.15 | 0.999 | 1.22 | 1.24 | 0.966 | – | 0.996 | 0.916 | 1.04 | 0.773 | 0.846 | 0.696 | 0.738 | 0.759 | 0.512 | 0.519 | 0.524 | 0.563
4 | LU99A | 0.371 | 0.438 | 0.35 | 0.293 | 0.884 | 0.971 | 0.866 | 0.826 | 0.883 | 0.567 | 0.556 | 0.571 | 0.494 | 0.491 | 0.425 | 0.372 | 0.383 | 0.414
5 | ABC-1 | 0.755 | 1.29 | 0.863 | 0.783 | 1.18 | – | 1.2 | 0.97 | 1.02 | 1.37 | 1.27 | 0.867 | 1.11 | 0.608 | 0.548 | 0.667 | 0.774 | 0.584
6 | NCI-H2170 | 0.652 | 0.691 | 0.614 | 0.804 | 0.503 | 0.445 | 0.475 | 0.454 | 0.53 | 1.16 | 1.26 | 1.1 | 1.15 | 1.24 | 0.38 | 0.381 | 0.329 | 0.319
7 | NCI-H2347 | 0.768 | 0.657 | 0.902 | 0.794 | 0.603 | 0.575 | 0.616 | 0.577 | 0.605 | 0.7 | 0.815 | 0.723 | 0.708 | 0.813 | 0.426 | 0.457 | 0.425 | 0.367
8 | NCI-H1993 | 0.814 | 0.624 | 0.495 | 0.665 | 0.534 | 0.643 | 0.599 | 0.63 | 0.677 | 0.856 | 0.877 | 0.92 | 0.775 | 0.887 | 0.502 | 0.539 | 0.453 | 0.478
9 | NCI-H322M | 0.554 | 0.467 | 0.544 | 0.583 | 0.785 | 0.721 | 0.617 | 0.593 | 0.575 | 0.969 | 0.981 | 0.9 | 0.811 | 0.914 | 0.527 | 0.564 | 0.524 | 0.509
